Assay results: ChEMBL document CHEMBL1201862, “PubChem BioAssay data set” (2004)
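A five-concentration, 48-hour dose response in 96-well plates underlies each endpoint, interpolated linearly between surrounding concentrations. GI50 marks 50% less growth.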 Calls of active or inactive are those of the source. Rule as the data show it: active = GI50 up to about 1.1 µM and inactive = higher.

Tests used:
Assay in all cases: inhibition of tumour cell growth, NCI panel, 48 h
HOP-62 = system: HOP-62
EKVX = system: EKVX
RPMI-8226 = system: RPMI-8226
HCT-116 = system: HCT-116
LOX IMVI = system: LOX IMVI
SW-620 = system: SW-620
HCC 2998 = system: HCC 2998
NCI-H23 = system: NCI-H23
Malme-3M = system: Malme-3M
M14 = system: M14
OVCAR-3 = system: OVCAR-3
SR = system: SR
IGROV-1 = system: IGROV-1
SF-295 = system: SF-295
MDA-N = system: MDA-N
SK-MEL-2 = system: SK-MEL-2
SNB-75 = system: SNB-75
HT-29 = system: HT-29
A498 = system: A498
SF-539 = system: SF-539
MOLT-4 = system: MOLT-4
A549 = system: A549
SK-MEL-28 = system: SK-MEL-28
BT-549 = system: BT-549
SF-268 = system: SF-268
U-251 = system: U-251
HCT-15 = system: HCT-15
UACC-257 = system: UACC-257
CCRF-CEM = system: CCRF-CEM
SN12C = system: SN12C
KM12 = system: KM12
NCI-H460 = system: NCI-H460
MDA-MB-435 = system: MDA-MB-435
SNB-19 = system: SNB-19
OVCAR-4 = system: OVCAR-4
HL-60 = system: HL-60
DU-145 = system: DU-145
SK-MEL-5 = system: SK-MEL-5
786-0 = system: 786-0
NCI-H522 = system: NCI-H522
K562 = system: K562
MCF7 = system: MCF7
OVCAR-8 = system: OVCAR-8
Hs-578T = system: Hs-578T
HOP-92 = system: HOP-92
NCI-H226 = system: NCI-H226
MDA-MB-231 = system: MDA-MB-231
UO-31 = system: UO-31
ACHN = system: ACHN
OVCAR-5 = system: OVCAR-5
PC-3 = system: PC-3
UACC-62 = system: UACC-62

Measured: GI50

O=C1NC(=O)C(C(CC(=O)c2ccc(Cl)cc2)c2ccc(Cl)cc2)C(=O)N1 (configuration not stated)
> 100 µM: HCT-15
inactive: HOP-62 > 100 µM | EKVX 17.1 µM | RPMI-8226 33.7 µM | HCT-116 34 µM | LOX IMVI 54 µM | SW-620 > 100 µM | HCC 2998 6.73 µM | NCI-H23 > 100 µM | M14 > 100 µM | OVCAR-3 60.4 µM | SR 35.2 µM | IGROV-1 > 100 µM | SF-295 > 100 µM | MDA-N 92 µM | SK-MEL-2 > 100 µM | SNB-75 > 100 µM | HT-29 > 100 µM | A498 > 100 µM | SF-539 18 µM | MOLT-4 74 µM | A549 > 100 µM | SK-MEL-28 > 100 µM | BT-549 > 100 µM | SF-268 36.2 µM | U-251 > 100 µM | UACC-257 > 100 µM | CCRF-CEM 42.2 µM | SN12C > 100 µM | KM12 37.8 µM | NCI-H460 > 100 µM | MDA-MB-435 89.1 µM | SNB-19 > 100 µM | OVCAR-4 > 100 µM | HL-60 > 100 µM | DU-145 > 100 µM | SK-MEL-5 > 100 µM | 786-0 > 100 µM | NCI-H522 > 100 µM | K562 > 100 µM | MCF7 17.2 µM | OVCAR-8 > 100 µM | Hs-578T > 100 µM | HOP-92 40.4 µM | NCI-H226 > 100 µM | MDA-MB-231 > 100 µM | UO-31 > 100 µM | ACHN > 100 µM | OVCAR-5 > 100 µM | PC-3 > 100 µM | UACC-62 > 100 µM
active: Malme-3M 225 nM
